Reference: PubChem BioAssay (NCI)
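In this assay, cells in 96-well plates receive the compound at five concentrations for 48 hours. Endpoints are linearly interpolated between the surrounding concentrations. At the GI50, growth is halved. The concentration for full growth arrest is given as TGI.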

Assays:
Assay in all cases: growth of human tumour cells (NCI), 48 h
[1] = test system: K-562 leukemia
[2] = test system: UO-31 renal
[3] = test system: SN12C renal
[4] = test system: OVCAR-3 ovarian
[5] = test system: RPMI-8226 leukemia
[6] = test system: ACHN renal
[7] = test system: MDA-MB-435
[8] = test system: A498 renal
[9] = test system: SR leukemia
[10] = test system: MALME-3M melanoma
[11] = test system: DU-145 prostate
[12] = test system: HT29 colon
[13] = test system: HCC-2998 colon
[14] = test system: NCI-H23 lung
[15] = test system: LOX IMVI melanoma
[16] = test system: TK-10 renal

SMILES	TGI [1]	GI50 [2]	TGI [2]	TGI [3]	TGI [4]	TGI [5]	TGI [6]	TGI [7]	GI50 [8]	TGI [8]	TGI [9]	TGI [10]	TGI [11]	TGI [12]	TGI [13]	TGI [14]	TGI [15]	GI50 [16]	TGI [16]
COc1ccc(/C=C2/C(=O)N(/C=C3\C(=O)Oc4ccccc4C3=O)C(=NC(C)=O)N2C)cc1OC	> 100 µM	> 100 µM	> 100 µM	> 100 µM	> 41.7 µM	> 100 µM	> 100 µM	> 100 µM	> 100 µM	> 100 µM	> 100 µM	> 100 µM	> 100 µM	> 100 µM	> 100 µM	> 100 µM	> 100 µM	> 100 µM	> 100 µM
c1cc2nnc1SCCSCCCSCCS2	> 100 µM		> 100 µM	> 100 µM	> 100 µM	> 100 µM	> 100 µM	> 100 µM		> 100 µM	> 100 µM	> 100 µM	> 100 µM	> 100 µM	> 100 µM	> 100 µM	> 100 µM		> 100 µM
O=C1/C(=C\c2cccc(Oc3ccccc3)c2)SC(c2ccccc2)N1Cc1ccccc1 (stereo unspecified)	> 100 µM		> 100 µM	> 100 µM	70 µM	57.4 µM	> 100 µM	76.2 µM		> 100 µM	56.8 µM	57.7 µM	> 100 µM	51.2 µM	> 100 µM	62.7 µM	32 µM		99.5 µM
COc1cc([N+](=O)[O-])cc2c1NC(=O)C2(C)SC (stereo unspecified)	> 100 µM		> 100 µM	> 100 µM	> 100 µM	> 100 µM	> 100 µM	> 100 µM		> 100 µM	> 100 µM	> 100 µM	> 100 µM	> 100 µM	> 100 µM	> 100 µM	> 100 µM		> 100 µM
O=C(Cc1ccccc1)Nc1nc2ccc(Cl)cc2c2nc(-c3ccco3)nn12	> 100 µM		> 100 µM	> 100 µM	> 100 µM	> 100 µM	> 100 µM	> 100 µM		> 100 µM	> 77.2 µM	> 100 µM	> 100 µM	> 100 µM	> 100 µM	> 100 µM	> 100 µM		> 75.3 µM
CCOC(=O)n1ccc2c(C(=O)OC)c(C(=O)OC)cc(/C(=C/C(=O)OC)C(=O)OC)c21	> 100 µM		> 100 µM	> 100 µM	> 100 µM	> 100 µM	> 100 µM	> 100 µM		> 100 µM	> 100 µM	> 100 µM	> 100 µM	> 100 µM	> 100 µM	> 100 µM	> 100 µM		> 100 µM
N#CC(C#N)=C(N)/C(C#N)=C/c1ccc(O)c(O)c1	> 100 µM		> 100 µM	> 100 µM	> 100 µM	> 100 µM	> 100 µM	> 100 µM		> 100 µM	> 100 µM	> 100 µM	> 100 µM	> 100 µM	> 100 µM	> 100 µM	> 100 µM		> 100 µM
CN(C)c1ccc(C2=C([O-])c3cc(-[n+]4ccccc4)ccc3C2=O)cc1	> 100 µM		> 100 µM	> 100 µM	> 100 µM	> 100 µM	> 100 µM	> 100 µM		> 100 µM	> 100 µM	> 100 µM	> 100 µM	> 100 µM	> 100 µM	> 100 µM	> 100 µM		> 100 µM
NC(=S)NN=C1Cc2ccccc2C1	> 100 µM		> 100 µM	> 100 µM	> 100 µM	> 100 µM	> 100 µM	> 100 µM		> 100 µM	> 100 µM	> 100 µM	> 100 µM	> 100 µM	> 100 µM	> 100 µM	> 100 µM		> 100 µM
CC(O)/C=C/C1OC(=O)CC1Nc1ccc(C=O)cc1 (stereo unspecified)	> 100 µM		> 100 µM	> 100 µM	> 100 µM	90.9 µM	> 100 µM	> 100 µM		> 100 µM	73.8 µM	> 100 µM	> 100 µM	> 100 µM	> 100 µM	> 100 µM	> 100 µM		> 100 µM
CNc1ccc(Cl)cc1C(=O)N1CCC[C@H]1CO	> 100 µM		> 100 µM	> 100 µM	> 100 µM	> 100 µM	> 100 µM	> 100 µM		> 100 µM	> 100 µM	> 100 µM	> 100 µM	> 100 µM	> 100 µM	> 100 µM	> 100 µM		> 100 µM
CCCCCCCCCCCCCCCCCCOC(COP(=O)(O)OCC1OC(n2cc(F)c(=O)[nH]c2=O)CC1O)COP(=O)(O)OCC1OC(n2ccc(N)nc2=O)C(O)C1O (stereo unspecified)	> 100 µM		> 100 µM	> 100 µM	> 100 µM	> 100 µM	> 100 µM	> 100 µM		> 100 µM	> 100 µM	> 100 µM	> 100 µM	> 100 µM	> 70.5 µM	> 100 µM	> 100 µM		> 100 µM
Clc1ccc(C2=Cc3nc2c(-c2ccccc2)c2ccc([nH]2)c(-c2ccccc2)c2nc(c(-c4ccccc4)c4ccc([nH]4)c3-c3ccccc3)C=C2)cc1	> 62.5 µM		> 62.5 µM	> 62.5 µM	> 62.5 µM	> 62.5 µM	> 62.5 µM	> 62.5 µM		> 62.5 µM	> 62.5 µM	> 62.5 µM	> 62.5 µM	> 62.5 µM	> 62.5 µM	> 62.5 µM	> 62.5 µM		> 62.5 µM
O=C1NC(=O)C23C(=O)NC(=O)C12C1C=CC3CC1 (stereo unspecified)	> 10 µM		> 10 µM	> 10 µM	> 10 µM	> 10 µM	> 10 µM	> 10 µM		> 10 µM	> 10 µM	> 10 µM	> 10 µM	> 10 µM	> 10 µM	> 10 µM	> 10 µM		> 10 µM
COc1ccc(OC)c2c1ccc1c(C)c3ccccc3c(C)c12	> 100 µM		> 100 µM	> 100 µM	> 100 µM	> 100 µM	> 100 µM	> 100 µM		> 100 µM	> 100 µM	> 100 µM	> 100 µM	> 100 µM	45.8 µM	> 100 µM	> 100 µM		> 100 µM
COc1ccc(N2C(=O)C3c4[nH]c5ccc(OC)cc5c4C4CCC(c5ccccc5)CC4C3C2=O)cc1 (stereo unspecified)	> 43.9 µM		> 70.6 µM	27.9 µM	37 µM	39.7 µM	34 µM	68.4 µM		37.4 µM	2.45 µM	30.3 µM	> 100 µM	> 40.5 µM	49.5 µM	46.6 µM	56.3 µM		> 57.7 µM
Cc1cc(=O)[nH]c(Sc2ccc([N+](=O)[O-])cc2[N+](=O)[O-])n1	> 100 µM		37.1 µM	28.3 µM	31.2 µM	18.7 µM	38.4 µM	> 55.1 µM		> 100 µM	> 100 µM	35.7 µM	43.5 µM	19.1 µM	30.6 µM	41.1 µM	8.67 µM		29.6 µM
COc1ccccc1CC1(O)OC(=O)c2ccccc21 (stereo unspecified)	> 100 µM		> 100 µM	> 100 µM	> 100 µM	> 100 µM	> 100 µM	> 100 µM		> 100 µM	> 100 µM	> 100 µM	> 100 µM	> 100 µM	> 100 µM	> 100 µM	> 100 µM		> 100 µM
